Laboratory results reported in patent US20150051232A1, “USE OF (RS)-S-CYCLOPROPYL-S-(4--5-(TRIFLUOROMETHYL)PYRIMIDIN-2-YL]AMINO}PHENYL)SULFOXIMIDE FOR TREATING SPECIFIC TUMOURS” (Bayer Intellectual Property GmbH, priority 2012, published 2015).

Assays:
Format in all cases: in vivo, humans
mesotheliomas = assay: Clinical trial in patients with mesotheliomas; conditions: 3 days of treatment and 4 days of non-treatment; for duration of treatment (until disease progression) / tumour response according to RECIST 1.1: oral solution
Text: Patient 1010, epithelioid mesothelioma, progressive disease on study enrollment, systemic pre-therapies with Alimta and cisplatin, gemcitabine, doxorubicin, dekabine
Patient 1016, epithelioid mesothelioma, stage IV, progressive disease on study enrollment, systemic pre-therapies with Alimta and cisplatin, Alimta and carboplatin, Alimta and carboplatin and Avastin, Avastin, Alimta, gemcitabine
Patient 1023, pleuramesothelioma, stage IV, progressive disease on study enrollment, systemic pre-therapies with cisplatin and Alimta
Patient 1024, pleuramesothelioma, stage IV, progressive disease on study enrollment, systemic pre-therapies with cisplatin and Alimta and Avastin, Avastin, carboplatin and Alimta and doxorubicin and dekapine
Oral solution in two dose strengths, ingredients micronized BAY 1000394 (0.2 mg/ml and 4.8 mg/ml), Levomenthol (synonym: 1-menthol, flavouring), macrogol (400) (synonym: polyethylene glycol (400), solubilizer), polysorbate 20 (surfactant)
Dosage twice a day 1.2 mg (patient 1010), 4.8 mg (patient 1016) and 9.6 mg (patients 1023 and 1024), administration protocol 3 days of treatment and 4 days of non-treatment, long-term treatment until disease progression

thyroid cancer = assay: Clinical trial in patients with thyroid cancer
Experimental: Patient 2006, clinical study 14856, person, papillary thyroid cancer stage IV, progressive disease on study enrollment, systemic pre-therapies with 17-AAG, Sutent, sorafenib, erlotinib and temsirolimus
Patient 1030, clinical study 14484, person, thyroid cancer stage IV, progressive disease on study enrollment, systemic pre-therapies with Adriamycin and cisplatin/carboplatin, carboplatin and Taxol, Nexavar, Sutent
Patient 2006: oral solution, ingredients micronized BAY 1000394 (0.2 mg/ml), levomenthol (synonym: 1-menthol, flavouring) macrogol (400) (synonym: polyethylene glycol (400), solubilizer), polysorbate 20 (surfactant)
Patient 1030: tablet, ingredients BAY 1000394, micronized, 5 mg/tablet, granulated mannitol (filler), microcrystalline cellulose (filler), croscarmellose (disintegrant), magnesium stearate (additive for pressing), red lacquer (coating)
Patient 2006: dosage twice a day 0.3 mg, administration protocol 28 days of treatment and 14 days of non-treatment, long-term treatment until disease progression
Patient 1030: dosage 5 mg in the morning, 10 mg in the evening, administration protocol 3 days of treatment and 4 days of non-treatment, long-term treatment until disease progression

[1] = system: squamous cell carcinoma of the oesophagus; assay: Clinical trial in a patient with squamous cell carcinomas of the oesophagus; conditions: 28 days of treatment and 14 days of non-treatment
Experimental: Patient 3002, squamous cell carcinoma of the oesophagus stage IV, progressive disease on study enrollment, systemic pre-therapy with cisplatin and Xeloda
Oral solution, ingredients micronized BAY 1000394 (0.2 mg/ml), levomenthol (synonym: 1-menthol, flavouring) macrogol (400) (synonym: polyethylene glycol (400), solubilizer), polysorbate 20 (surfactant)
Dosage twice a day 0.5 mg, administration protocol 28 days of treatment and 14 days of non-treatment, long-term treatment until disease progression

[2] = system: cholangiocellular carcinoma; assay: Clinical trial in a patient with cholangiocellular carcinoma; conditions: 3 days of treatment and 4 days of non-treatment
Experimental: Patient 1026, cholangiocellular carcinoma stage IV, progressive disease on study enrollment, systemic pre-therapies with cisplatin/oxaliplatin and Gemzar, 5-fluorouracil and folinic acid
tablet, ingredients BAY 1000394, micronized, 5 mg/tablet, granulated mannitol (filler), microcrystalline cellulose (filler), croscarmellose (disintegrant), magnesium stearate (additive for pressing), red lacquer (coating)
Dosage twice a day 5 mg, administration protocol 3 days of treatment and 4 days of non-treatment, long-term treatment until disease progression

[3] = patient 1010, epithelioid mesothelioma, twice a day 1.2 mg
[4] = patient 1016, epithelioid mesothelioma stage IV, twice a day 4.8 mg
[5] = patient 1023, pleuramesothelioma stage IV, twice a day 9.6 mg
[6] = patient 1024, pleuramesothelioma stage IV, twice a day 9.6 mg
[7] = patient 1030, thyroid cancer stage IV, tablet, 5 mg in the morning, 10 mg in the evening, 3 days of treatment and 4 days of non-treatment
[8] = patient 2006, papillary thyroid cancer stage IV, oral solution, twice a day 0.3 mg, 28 days of treatment and 14 days of non-treatment
[9] = patient 3002, squamous cell carcinoma of the oesophagus stage IV, oral solution, twice a day 0.5 mg
[10] = patient 1026, cholangiocellular carcinoma stage IV, tablet, twice a day 5 mg

C[C@@H](O)[C@@H](C)Oc1nc(Nc2ccc(S(=N)(=O)C3CC3)cc2)ncc1C(F)(F)F (mixture of isomers) [Compound A, (RS)—S-cyclopropyl-S-(4-{[4-{[(1R,2R)-2-hydroxy-1-methylpropyl]oxy}-5-(trifluoromethyl)pyrimidin-2-yl]amino}phenyl)sulphoximide]
treatment outcome in mesothelioma patients (mesotheliomas; daily dose of 2.4 mg, 9.6 mg and 19.2 mg divided into two identical dosage units): Disease stabilization
treatment outcome in thyroid cancer patients (thyroid cancer; daily dose of 0.6 mg divided into two identical dosage units, 28 days of treatment and 14 days of non-treatment): Disease stabilization
treatment outcome in thyroid cancer patients (thyroid cancer; daily dose of 15 mg (5 mg in the morning, 10 mg in the evening), 3 days of treatment and 4 days of non-treatment): Disease stabilization
treatment outcome in a patient suffering from squamous cell carcinoma of the oesophagus ([1]; daily dose of 1 mg divided into two identical dosage units): Disease stabilization
treatment outcome in a patient suffering from cholangiocellular carcinoma ([2]; daily dose of 10 mg divided into two identical dosage units): Disease stabilization

C[C@@H](O)[C@@H](C)Oc1nc(Nc2ccc([S@](=N)(=O)C3CC3)cc2)ncc1C(F)(F)F [BAY 1000394, (R)—S-cyclopropyl-S-(4-{[4-{[(1R,2R)-2-hydroxy-1-methylpropyl]oxy}-5-(trifluoromethyl)pyrimidin-2-yl]amino}phenyl)sulphoximide]
duration of treatment (until disease progression) (mesotheliomas; [3]): about 4 months
tumour response according to RECIST 1.1 (mesotheliomas; [3]): disease stabilization
duration of treatment (until disease progression) (mesotheliomas; [4]): more than 3 months
tumour response according to RECIST 1.1 (mesotheliomas; [4]): disease stabilization
duration of treatment (until disease progression) (mesotheliomas; [5]): about 2 months
tumour response according to RECIST 1.1 (mesotheliomas; [5]): disease stabilization
duration of treatment (until disease progression) (mesotheliomas; [6]): about 2 months
tumour response according to RECIST 1.1 (mesotheliomas; [6]): disease stabilization
duration of treatment (until disease progression) (thyroid cancer; [7]): more than 3 months
tumour response according to RECIST 1.1 (thyroid cancer; [7]): disease stabilization
duration of treatment (until disease progression) (thyroid cancer; [8]): about 2 months
tumour response according to RECIST 1.1 (thyroid cancer; [8]): disease stabilization
duration of treatment (until disease progression) [1, 9]: more than 2 months
tumour response according to RECIST 1.1 [1, 9]: disease stabilization
duration of treatment (until disease progression) [2, 10]: more than 4 months
tumour response according to RECIST 1.1 [2, 10]: disease stabilization
